Data reported in ChEMBL document CHEMBL1156860, “Synthesis and biological activities of novel indole derivatives as potent and selective PPARgamma modulators” (Bioorg Med Chem Lett, 2010).

Columns and labels:
[1] = target: T1, Peroxisome proliferator-activated receptor gamma (Homo sapiens, UniProt P37231)
T1 sequence (P37231 whole entry): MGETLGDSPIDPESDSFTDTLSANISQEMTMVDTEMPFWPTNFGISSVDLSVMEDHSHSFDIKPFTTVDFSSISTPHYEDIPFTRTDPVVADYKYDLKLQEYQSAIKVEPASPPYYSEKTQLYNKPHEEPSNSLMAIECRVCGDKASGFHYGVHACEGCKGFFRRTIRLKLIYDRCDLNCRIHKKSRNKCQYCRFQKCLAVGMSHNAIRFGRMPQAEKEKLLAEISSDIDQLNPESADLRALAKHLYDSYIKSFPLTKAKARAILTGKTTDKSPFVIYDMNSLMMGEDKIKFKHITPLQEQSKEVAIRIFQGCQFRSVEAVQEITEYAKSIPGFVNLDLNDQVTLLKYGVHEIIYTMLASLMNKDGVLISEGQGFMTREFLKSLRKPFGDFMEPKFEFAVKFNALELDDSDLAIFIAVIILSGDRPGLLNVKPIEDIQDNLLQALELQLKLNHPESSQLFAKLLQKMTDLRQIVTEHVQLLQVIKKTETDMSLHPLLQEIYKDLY
Description: Agonist activity at human PPARgamma expressed in african green monkey CV1 cells by Gal4 transactivation assay

[2] = target: T1, Peroxisome proliferator-activated receptor gamma; remark: listed apart in the source
Description: Displacement of radiolabeled ((5-{4-[Methyl-pyridin-2yl-amino)-ethoxy]-benzyl}-thiazolidine-2,4-dione) from human PPARgamma ligand binding domain expressed in Escherichia coli

[3] = target: T2, Peroxisome proliferator-activated receptor alpha (Homo sapiens, UniProt Q07869); assay: Agonist activity at human PPARalpha expressed in african green monkey CV1 cells by Gal4 transactivation assay; format: functional, cell-based, CV-1
T2 sequence (Q07869 whole entry): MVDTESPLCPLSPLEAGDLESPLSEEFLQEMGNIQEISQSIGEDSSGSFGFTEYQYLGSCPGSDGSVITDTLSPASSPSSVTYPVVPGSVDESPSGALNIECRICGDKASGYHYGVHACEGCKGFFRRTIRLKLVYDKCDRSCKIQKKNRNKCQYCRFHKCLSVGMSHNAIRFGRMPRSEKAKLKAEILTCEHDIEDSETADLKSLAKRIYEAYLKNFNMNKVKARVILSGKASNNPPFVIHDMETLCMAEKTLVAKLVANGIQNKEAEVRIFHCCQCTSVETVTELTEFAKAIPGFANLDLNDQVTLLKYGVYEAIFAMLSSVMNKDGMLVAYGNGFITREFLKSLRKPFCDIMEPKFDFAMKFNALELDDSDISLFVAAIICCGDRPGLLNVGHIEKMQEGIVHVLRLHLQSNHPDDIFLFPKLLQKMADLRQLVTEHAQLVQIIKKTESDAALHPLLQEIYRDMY

[4] = target: T3, Peroxisome proliferator-activated receptor delta (Homo sapiens, UniProt Q03181); assay: Displacement of radiolabeled GW-2433 from human PPARdelta ligand binding domain expressed in Escherichia coli
T3 sequence (Q03181 whole entry): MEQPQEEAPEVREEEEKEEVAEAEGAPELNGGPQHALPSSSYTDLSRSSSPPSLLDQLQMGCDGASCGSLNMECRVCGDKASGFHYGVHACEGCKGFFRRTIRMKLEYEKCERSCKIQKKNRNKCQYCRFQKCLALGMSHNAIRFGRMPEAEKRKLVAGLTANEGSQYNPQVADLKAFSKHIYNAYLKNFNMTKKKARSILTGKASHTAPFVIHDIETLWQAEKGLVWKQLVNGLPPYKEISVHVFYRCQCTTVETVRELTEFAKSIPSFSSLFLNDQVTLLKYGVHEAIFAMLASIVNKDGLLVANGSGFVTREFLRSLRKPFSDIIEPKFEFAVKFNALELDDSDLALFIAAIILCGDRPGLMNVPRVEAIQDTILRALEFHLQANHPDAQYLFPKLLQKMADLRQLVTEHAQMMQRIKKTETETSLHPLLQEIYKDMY

[5] = target: T2, Peroxisome proliferator-activated receptor alpha; assay: Displacement of radiolabeled GW-2433 from human PPARalpha ligand binding domain expressed in Escherichia coli
[6] = target: T3, Peroxisome proliferator-activated receptor delta; assay: Agonist activity at human PPARdelta expressed in african green monkey CV1 cells by Gal4 transactivation assay; format: functional, cell-based, CV-1
[7] = target: T4, Peroxisome proliferator-activated receptor alpha (Mus musculus, UniProt P23204); assay: Agonist activity at mouse PPARalpha expressed in african green monkey CV1 cells by Gal4 transactivation assay; format: functional, cell-based, CV-1
T4 sequence (P23204 whole entry): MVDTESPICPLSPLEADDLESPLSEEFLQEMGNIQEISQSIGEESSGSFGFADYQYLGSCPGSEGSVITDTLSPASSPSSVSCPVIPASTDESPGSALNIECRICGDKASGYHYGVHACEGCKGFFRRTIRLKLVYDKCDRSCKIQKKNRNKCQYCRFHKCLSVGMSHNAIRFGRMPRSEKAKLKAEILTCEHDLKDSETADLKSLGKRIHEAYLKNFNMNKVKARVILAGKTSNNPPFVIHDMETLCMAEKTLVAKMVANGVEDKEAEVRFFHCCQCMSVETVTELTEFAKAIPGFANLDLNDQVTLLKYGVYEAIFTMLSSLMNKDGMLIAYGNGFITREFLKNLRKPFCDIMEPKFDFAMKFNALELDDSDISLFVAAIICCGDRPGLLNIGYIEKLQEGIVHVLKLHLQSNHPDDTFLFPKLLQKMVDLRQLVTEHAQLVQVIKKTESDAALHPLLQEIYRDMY

[8] = target: T5, Peroxisome proliferator-activated receptor gamma (Mus musculus, UniProt P37238); assay: Agonist activity at mouse PPARgamma expressed in african green monkey CV1 cells by Gal4 transactivation assay; format: functional, cell-based, CV-1
T5 sequence (P37238 whole entry): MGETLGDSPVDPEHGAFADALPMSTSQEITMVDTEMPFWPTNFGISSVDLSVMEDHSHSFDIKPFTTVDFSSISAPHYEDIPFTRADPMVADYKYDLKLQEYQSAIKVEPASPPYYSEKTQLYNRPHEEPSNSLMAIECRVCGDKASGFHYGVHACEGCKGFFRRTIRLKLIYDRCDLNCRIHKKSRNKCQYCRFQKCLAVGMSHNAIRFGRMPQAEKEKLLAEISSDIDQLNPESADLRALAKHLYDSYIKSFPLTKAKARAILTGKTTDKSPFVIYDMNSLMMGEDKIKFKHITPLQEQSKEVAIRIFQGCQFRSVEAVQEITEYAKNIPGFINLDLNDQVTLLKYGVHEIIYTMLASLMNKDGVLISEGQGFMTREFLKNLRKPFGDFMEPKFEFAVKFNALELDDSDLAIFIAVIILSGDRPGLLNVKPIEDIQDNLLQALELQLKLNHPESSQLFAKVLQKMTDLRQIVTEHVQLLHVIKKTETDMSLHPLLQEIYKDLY

[9] = target: T6, Peroxisome proliferator-activated receptor delta (Mus musculus, UniProt P35396); assay: Agonist activity at mouse PPARdelta expressed in african green monkey CV1 cells by Gal4 transactivation assay; format: functional, cell-based, CV-1
T6 sequence (P35396 whole entry): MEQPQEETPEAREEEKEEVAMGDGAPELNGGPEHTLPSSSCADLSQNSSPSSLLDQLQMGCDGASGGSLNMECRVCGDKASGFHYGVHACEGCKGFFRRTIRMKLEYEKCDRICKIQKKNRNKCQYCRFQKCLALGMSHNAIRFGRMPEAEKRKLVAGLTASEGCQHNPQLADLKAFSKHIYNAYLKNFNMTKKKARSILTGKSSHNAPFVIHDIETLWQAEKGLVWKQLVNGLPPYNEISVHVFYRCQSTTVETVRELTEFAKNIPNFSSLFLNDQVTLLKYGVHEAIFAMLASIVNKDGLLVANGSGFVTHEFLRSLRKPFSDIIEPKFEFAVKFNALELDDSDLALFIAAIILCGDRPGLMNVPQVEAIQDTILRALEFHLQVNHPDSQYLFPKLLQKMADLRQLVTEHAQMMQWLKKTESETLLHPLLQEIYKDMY

[10] = AUC in Zucker fa/fa rat at 5 mg/kg, po; format: ADME, organism-based; design: dose 5 mg/kg, route oral; conditions: plasma
Rattus norvegicus [11] = assay: Antidiabetic activity in Zucker fa/fa rat assessed as reduction in hematocrit level in at 10 mg/kg, po twice a day for 5 days; format: functional; design: scale not given: the % may be the effect or the level left
Rattus norvegicus [12] = assay: Antidiabetic activity in Zucker fa/fa rat assessed as reduction in plasma glucose level in at 10 mg/kg, po twice a day for 5 days; format: functional; design: scale not given: the % may be the effect or the level left
Rattus norvegicus [13] = assay: Antidiabetic activity in Zucker fa/fa rat assessed as reduction in triglyceride level in at 10 mg/kg, po twice a day for 5 days; format: functional; design: scale not given: the % may be the effect or the level left
[14] = target: T7, Peroxisome proliferator-activated receptor alpha (Mus musculus) (UniProt P23204); assay: Agonist activity at mouse PPARalpha expressed in african green monkey CV1 cells by Gal4 transactivation assay relative to SW516; format: functional, cell-based; conditions: CV-1
T7 sequence (whole entry): T4 sequence (P23204 whole entry)

Rattus norvegicus [15] = assay: Antidiabetic activity in Zucker fa/fa rat assessed as reduction in hematocrit level in at 40 mg/kg, po twice a day for 5 days; format: functional; design: scale not given: the % may be the effect or the level left
[16] = Volume of distribution at steady state in CD rat at 1 mg/kg, iv and 5 mg/kg, po; format: ADME, organism-based; conditions: in vivo, read-out: Vdss
[17] = Cmax in CD rat at 1 mg/kg, iv and 5 mg/kg, po; format: ADME, organism-based; conditions: in vivo
[18] = AUC in CD rat at 5 mg/kg, po; format: ADME, organism-based; design: dose 5 mg/kg, route oral; conditions: plasma
[19] = Half life in CD rat at 1 mg/kg, iv and 5 mg/kg, po; format: ADME, organism-based; conditions: in vivo
[20] = Oral bioavailability in CD rat at 1 mg/kg, iv; format: ADME, organism-based; conditions: in vivo
[21] = Clearance in CD rat at 1 mg/kg, iv and 5 mg/kg, po; format: ADME, organism-based; conditions: in vivo
Rattus norvegicus [22] = assay: Antidiabetic activity in Zucker fa/fa rat assessed as reduction in triglyceride level in at 40 mg/kg, po twice a day for 5 days; format: functional; design: scale not given: the % may be the effect or the level left
Rattus norvegicus [23] = assay: Antidiabetic activity in Zucker fa/fa rat assessed as reduction in plasma glucose level in at 40 mg/kg, po twice a day for 5 days; format: functional; design: scale not given: the % may be the effect or the level left
[24] = target: T8, Peroxisome proliferator-activated receptor alpha (Homo sapiens) (UniProt Q07869); assay: Agonist activity at human PPARalpha expressed in african green monkey CV1 cells by Gal4 transactivation assay relative to SW516; format: functional, cell-based; conditions: CV-1
T8 sequence (whole entry): T2 sequence (Q07869 whole entry)

| SMILES | EC50 [1] [µM] | IC50 [2] [µM] | EC50 [3] [µM] | IC50 [4] [µM] | IC50 [5] [µM] | EC50 [6] [µM] | also measured |
| --- | --- | --- | --- | --- | --- | --- | --- |
| CCCc1cc2cc(NC(=O)C(CC)c3ccccc3)ccc2n1Cc1ccc(-c2ccccc2C(=O)O)cc1 (stereo not drawn) | 0.002 | 0.26 | > 10 | > 10 | > 10 | – | – |
| Cc1c(C)n(Cc2ccc(-c3ccccc3C(=O)O)cc2)c2ccc(C(=O)NCc3ccccc3)cc12 | – | – | > 10 | > 10 | > 10 | > 10 | – |
| CCCc1nc2ccc(C(=O)NC(CC)c3ccccc3)cc2n1Cc1ccc(-c2ccccc2C(=O)O)cc1 (stereo not drawn) | 0.9 | – | > 10 | – | – | > 10 | EC50 [7]: > 10 µM; EC50 [8]: 1.69 µM; EC50 [9]: > 10 µM |
| CN(CCOc1ccc(C[C@H](Nc2ccccc2C(=O)c2ccccc2)C(=O)O)cc1)c1ccccn1 | – | – | – | – | – | – | AUC [10]: 16500 ng·h/mL; Activity (Rattus norvegicus [11]): 15%; Activity (Rattus norvegicus [12]): 21%; Activity (Rattus norvegicus [13]): 54% |
| CCC(NC(=O)c1ccc2c(c1)c(C)c(C)n2Cc1ccc(-c2ccccc2C(=O)O)cc1)c1ccccc1 (stereo not drawn) | – | – | > 10 | > 10 | > 10 | > 10 | AUC [10]: 1330 ng·h/mL; Activity [14]: 79%; EC50 [7]: 5.51 µM; Activity (Rattus norvegicus [15]): >10%; Vd [16]: 17 L/kg; EC50 [8]: 0.002 µM; EC50 [9]: > 10 µM; Cmax [17]: 319 ng/mL; AUC [18]: 1150 ng·h/mL; half-life [19]: 4.58 h; bioavailability [20]: 52%; clearance [21]: 40 mL/min/kg; Activity (Rattus norvegicus [22]): 49%; Activity (Rattus norvegicus [23]): 25% |
| CCCc1c(SC)c2ccc(NC(=O)C(CC)c3ccccc3)cc2n1Cc1ccc(-c2ccccc2C(=O)O)cc1 (stereo not drawn) | 0.201 | 0.49 | > 10 | 6.95 | > 10 | – | – |
| CCCc1c(SC)c2cc(NC(=O)C(CC)c3ccccc3)ccc2n1Cc1ccc(-c2ccccc2C(=O)O)cc1 (stereo not drawn) | 0.003 | 0.036 | > 10 | > 10 | > 10 | > 10 | – |
| CCC(C(=O)Nc1ccc2c(c1)c(C)c(C)n2Cc1ccc(-c2ccccc2C(=O)O)cc1)c1ccccc1 (stereo not drawn) | 0.338 | 0.574 | 6.14 | > 10 | > 10 | – | Activity [24]: 45% |
| Cc1c(C)n(Cc2ccc(-c3ccccc3C(=O)O)cc2)c2ccc(C(=O)NCCCc3ccccc3)cc12 | 0.022 | 0.018 | > 10 | > 10 | > 10 | > 10 | – |
| CCC(NC(=O)c1ccc2cc(C)n(Cc3ccc(-c4ccccc4C(=O)O)cc3)c2c1)c1ccccc1 (stereo not drawn) | 0.163 | 0.321 | > 10 | > 10 | > 10 | > 10 | – |
| CCC(NC(=O)c1ccc2c(c1)cc(C)n2Cc1ccc(-c2ccccc2C(=O)O)cc1)c1ccccc1 (stereo not drawn) | 0.017 | 0.018 | 4.96 | > 10 | 7.04 | > 10 | Activity [24]: 114% |
| CCCc1nc2c(C)cc(-c3nc4ccccc4n3C)cc2n1Cc1ccc(-c2ccccc2C(=O)O)cc1 | 2.02 | 12.2 | > 10 | > 10 | > 10 | > 10 | EC50 [7]: > 10 µM; EC50 [8]: 4.06 µM; EC50 [9]: > 10 µM |
| CCC(NC(=O)c1ccc2c(c1)c(SC)c(C)n2Cc1ccc(-c2ccccc2C(=O)O)cc1)c1ccccc1 (stereo not drawn) | 0.001 | 0.012 | > 10 | > 10 | > 10 | > 10 | – |
